Here are results for 4 molecules from EP0323147A2, “1-Aralkyl-1,2-dihydropyrimidine-2-thiones” (SMITHKLINE BECKMAN CORPORATION, priority 1987, dated 1989).

pIC50: −log10 of the molar value. Marks after values point to notes of the source that are not given here. Bounds are passed on as bounds.

Data set [1] concerns spontaneously hypertensive rats. The experiment in a line: mean arterial blood pressure in spontaneously hypertensive rats after oral dosing. The settings on record: 50 mg/kg orally, compared to vehicle-treated controls. It is filed as in vivo. The method, then: Further, spontaneously hypertensive rats were treated with a suspension or solution of 1-(3,5-fluorobenzyl)-1,2,-dihydropyrimidine-2-thione hydrochloride at a dose of 50 mg/kg orally and mean arterial blood pressure was monitored for 260 minutes using indwelling cannulae in the tail arteries. […] Maximal blood pressure reduction was approximately 25 to 30 mm Hg.

For the next data set, the target named is T1, DBH (Homo sapiens, UniProt P09172).
T1 sequence (P09172 1-617): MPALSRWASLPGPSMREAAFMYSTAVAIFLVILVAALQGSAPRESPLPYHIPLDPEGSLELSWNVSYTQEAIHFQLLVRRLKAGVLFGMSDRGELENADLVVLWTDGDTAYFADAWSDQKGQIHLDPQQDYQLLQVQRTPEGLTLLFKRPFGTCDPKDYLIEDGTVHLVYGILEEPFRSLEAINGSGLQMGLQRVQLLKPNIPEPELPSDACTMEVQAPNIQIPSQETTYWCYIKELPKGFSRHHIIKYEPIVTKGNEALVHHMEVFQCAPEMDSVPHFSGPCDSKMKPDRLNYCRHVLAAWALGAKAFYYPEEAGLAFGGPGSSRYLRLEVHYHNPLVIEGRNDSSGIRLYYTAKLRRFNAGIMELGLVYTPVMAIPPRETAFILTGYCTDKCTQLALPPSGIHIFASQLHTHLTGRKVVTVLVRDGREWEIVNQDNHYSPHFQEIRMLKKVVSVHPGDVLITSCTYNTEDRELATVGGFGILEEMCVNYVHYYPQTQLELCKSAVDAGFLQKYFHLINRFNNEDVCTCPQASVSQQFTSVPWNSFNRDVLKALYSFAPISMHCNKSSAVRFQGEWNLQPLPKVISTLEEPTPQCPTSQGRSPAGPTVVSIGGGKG
The experiment in a line: in vitro DBH inhibition, conversion of tyramine to octopamine in the presence of DBH. Particulars: for percent inhibition: at 10⁻⁵ M compound concentration, IC₅₀ not determined. It is filed as biochemical. The method, then: Because the compounds of structure (I) inhibit DBH activity they have therapeutic value as diuretic, natriuretic, cardiotonic, antihypertensive, and vasodilatoragents, as well as antiulcerogenic and anti-Parkinson agents. Listed in Table I are the compounds of the invention that were tested for in vitro DBH inhibition by a standard procedure for assaying conversion of tyramine to octopamine in the presence of DBH. J.J. Pisano, et al., Biochim. Biophys. Acta, 43, 566-568 (1960). Octopamine was assayed following sodium periodate oxidation to p-hydroxy-benzaldehyde by measuring spectrophotometric absorbance at 330 nm. In Table I, inhibition is given in micromolar concentration of compound at which DBH activity was halved (IC₅₀). […]

For data set [2] the following is noted: literature, Teresawa et al., Japan Cir. J. 35, 339 (1971); cited from earlier work.

On to `Cl.Fc1cc(F)cc(Cn2cccnc2=S)c1` [1-(3,5-Difluorobenzyl)-1,2-dihydropyrimidine 2-thione Hydrochloride], for which, in data set [1], the “time after treatment to significant blood pressure reductions” value is no more than 30 min. In addition, the pIC50 at DBH (concentration of compound at which DBH activity was halved, read-out: DBH IC₅₀) was 5.55. Consider `Cl.Fc1cccc(Cn2cccnc2=S)c1` [1-(3-Fluorobenzyl)-1,2-dihydropyrimidine 2-thione Hydrochloride], for which the percent inhibition on DBH came to 15%^a. Same read-out and setting: the same measure for `S=c1ncccn1Cc1ccccc1` [1-benzyl-1,2-dihydropyrimidine-2-thione, 1-Benzyl-1,2-dihydropyrimidine-2 thione]: 5%^a. Consider `CCCCc1ccc(C(=O)O)nc1` [fusaric acid], for which the toxic effects entry in data set [2] is recorded as “hepatotoxic”.
